The text below walks through data of patent US6407064B2, “Aminoalcohol derivative and medicament comprising the same” (Seikagaku Corporation, priority 1999, dated 2002).

The subject of test [1] is GSLs which are produced starting with glucosylceramide. The following applies: J. Lipid Res. 28: 565-571 (1987); cited from earlier work.
The target of test [2] is T1, enzyme for glucosylceramide biosynthesis (Homo sapiens, UniProt Q16739).
T1 sequence (Q16739 1-394): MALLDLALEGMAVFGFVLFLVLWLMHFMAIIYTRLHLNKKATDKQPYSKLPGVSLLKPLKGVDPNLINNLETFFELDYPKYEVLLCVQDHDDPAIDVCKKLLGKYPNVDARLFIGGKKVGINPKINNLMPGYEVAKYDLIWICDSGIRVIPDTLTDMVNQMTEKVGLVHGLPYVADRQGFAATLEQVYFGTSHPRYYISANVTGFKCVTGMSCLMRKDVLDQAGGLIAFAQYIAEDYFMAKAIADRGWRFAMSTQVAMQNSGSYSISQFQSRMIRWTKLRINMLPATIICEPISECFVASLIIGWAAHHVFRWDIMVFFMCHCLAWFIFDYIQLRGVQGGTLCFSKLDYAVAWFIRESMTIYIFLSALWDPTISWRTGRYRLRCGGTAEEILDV
The following applies: J. Lipid Res. 28: 565-571 (1987); cited from earlier work.

In another test the test system is neurite. To be noted: literature; cited from earlier work.
A further test relates to synaptic function. To be noted: Biochem. Biophys. Res. Commun. 222: 494-498 (1996); cited from earlier work.
Test [3] deals with enzyme for ganglioside GM3 synthesis, mouse B16 melanoma cell. The test is described as follows: Activity of enzyme for ganglioside GM3 synthesis (14C-Gal incorporated in total lipid fraction). The format is cell-based. The following applies: relative value, control regarded as 100; test compound 24 μM, 24 hours; 14C-Gal incorporation. The protocol: The gangliosides produced by mouse B16 melanoma cell are almost composed of ganglioside GM3. Therefore, the activity of the enzyme for ganglioside GM3 synthesis can be determined conveniently by measuring the amount of ^14C-Gal incorporated in a total lipid-extracted fraction through a liquid layer partition method.
(§1) A liquid where the cells of mouse B16 melanoma were suspended was prepared with Dulbecco modified Eagle's medium containing 10% bovine fetal serum, inoculated into a 12-well plate in an amount of 2.0×10^5 cells/ml/well, and cultured in 5% CO2 incubator at 37° C. The treatment with a test compound (24 μM) and the addition of ^14C-Gal (22.2 kBq/11.7 nmol/6 μl/well) were started through the exchange of total amount of the medium 24 hours after the culture was started. Twenty-four hours after the treatment with the test compound was started, the culture mixture was treated with PBS containing 0.02% EDTA and PBS containing 0.25% trypsin successively to recover the cells.
Then, a mixed solvent of chloroform:methanol=2:1 (3 ml) was added to the cell pellet and, after the subjection to an ultrasonication for 30 minutes, the supernatant was recovered. Furthermore, a mixed solvent of chloroform:methanol=1:1 (3 ml) was added to the residual pellet after the recovery of the supernatant, and a similar operation was carried out. The resulting supernatant was combined with the first supernatant and the whole was evaporated to dryness under a nitrogen stream. A desalinated water (1.0 ml) was added to the total lipid-extracted fraction. After having been subjected to an ultrasonication for 1 minute, the mixture was transferred into a dialysis tube and dialyzed against water for 2 days. The sample after the dialysis was transferred into a vial for liquid scintillation counter and, after the addition of scintillator, the activity of incorporating ^14C-Gal was measured on scintillation counter.
The values of activity of the compounds of the present invention are shown as relative values obtained by calculation on the basis that the value of a control (a group where no test compound was added) is regarded as 100 in Table 3 below.

The test system of test [4] is ganglioside GM3, mouse B16 melanoma cells. As to the kind of experiment: Synthesized amount of ganglioside GM3 (HPTLC densitometry). The format is cell-based. The following applies: relative value, control regarded as 100, test compound 25 μM, 24 hours. Here is the method: as §1, with “culture flask (175 cm^2)” for “12-well plate”, “0.8×10^7 cells/20 ml,” for “2.0×10^5 cells/ml/well,”, “(25” for “(24”, “was” for “and the addition of ^14C-Gal (22.2 kBq/11.7 nmol/6 μl/well) were”, “three fourths” for “total amount”
Then, a mixed solvent of chloroform:methanol=2:1 (4 ml) was added to the cell pellet and, after the subjection to an ultrasonication for 30 minutes, the cell pellet solution was allowed to stand at room temperature for a night and the supernatant was recovered. Furthermore, a mixed solvent of chloroform:methanol=1:1 (4 ml) was added to the residual pellet after the recovery of the supernatant, and a similar operation was carried out. The resulting supernatant was combined with the first supernatant and the whole was evaporated to dryness under a nitrogen stream. To the total lipid fraction was added a 0.1 N methanolic sodium hydroxide solution (2.0 ml) and the mixture was allowed to stand at 40° C. for 2 hours. Thereafter, 1 N hydrochloric acid (0.2 ml) was added thereto and the mixture was allowed to stand for 1.5 hours.
Then, the mixture was washed with n-hexane (2 ml×2) and, after the lower layer thus washed was evaporated to dryness under a nitrogen stream, the residue was desalinated by gel filtration chromatography (Sephadex LH-20 (manufactured by Amersham Pharmacia Biotech), diameter of 10 mm, height of 120 mm) using chloroform:methanol=2:1 as the eluting solvent. […] After orcinol-sulfuric acid reagent had been sprayed on the plate, it was heated at 110° C. for 5 minutes and colored spot of ganglioside GM3 was quantitatively determined by means of densitometer (a measuring wavelength of 505 nm). […]

In test [5] the test system is cultured neurocytes of rat fetal cerebral cortex. The test is described as follows: Activity of accelerating synapse formation (intracellular calcium ion level, fura-2). It is filed as cell-based. The following applies: relative value, L-PDMP regarded as 100; compound 20 μM; assay on 10th day of culture. The protocol:
The activity of accelerating synapse formation was determined by measuring change of an intracellular calcium ion level resulted from the synchronized spontaneous ignition of neurocytes which is considered to show synapse activities by means of an intracellular calcium ion multipoint observation system using a calcium ion fluorescence indicator, fura-2.
Concretely, rat fetuses at the 18th day of pregnancy were taken out from Wistar rats (available from Japan SLC), and cerebral cortices of the fetuses were taken out and cut into small pieces. After having been treated with papain (manufactured by Worthington Biochemical) at 37° C. for 30 minutes, the pieces were suspended into a Dulbecco modified Eagle's medium containing 5% bovine neonatal serum and 5% equine serum and the cortices were dissociated into single cells with Cell Striner (70 μm, Falcon). Then, the cells were inoculated into a flexiperm plate coated with 0.5% polyethyleneimine (1.0×10^6 cells/500 μl/well), and was cultured in 7% CO2 incubator at 37° C. The medium was exchanged on 2nd, 5th, and 8th days after the culture had been started. The activity of the compound of the present invention was measured using the primary culture. The compound was added at the time when the medium was exchanged and the concentration of the compound was maintained to be 20 μM. Assay was carried out on 10th day after the culture had been started.
(2) Measurement of Activity of Accelerating Synapse Formation
Concretely, after the medium of each well where cells were cultured was substituted with basic salt solution (BSS), 3 μl of a DMSO solution (1 mg/ml) of a calcium ion fluorescence indicator fura-2 was added, and the whole was kept at 37° C. for 1 hour.
Background: Calcium assays in cells follow changes in intracellular calcium, usually with a dye or a luminescent sensor.

Each structure is given as a SMILES string.

On to `CCCCCCCCCC(=O)N[C@H](CN1CCOCC1)[C@H](O)c1ccccc1` [D-threo-PDMP, D-threo-1-phenyl-2-decanoylamino-3-morpholino-1-propanol], for which the “intracellular content of GSLs” value in test [1] is “remarkably reduces intracellular content of all GSLs”. Besides, the “effect on enzyme for glucosylceramide biosynthesis” value in test [2] is “specifically inhibits”. Further, the “effect on neurite extension” value in the test on neurite is “suppresses the extension of neurite”. Also, in the test on synaptic function, the “effect on synaptic function” value was “suppresses synaptic function”.

Turning to `CCCCOC(=O)CCC(=O)N[C@@H](CN1CCOCC1)[C@@H](O)c1ccccc1` [Example 5, (1S,2S)-2-(n-butoxy)butanedioylamino-3-morpholino-1-phenyl-1-propanol], the “Activity of accelerating glycolipid biosynthesis (Test Example 2)” value in test [3] is given as 122.3. Besides, the “Glycolipid content (Test Example 3)” value in test [4] is given as 131.2. In test [5], the “Activity of synapse formation” value came out at 92.5.

Take `O=C(O)CCCCCCCCC(=O)N[C@@H](CN1CCOCC1)[C@@H](O)c1ccccc1` [Example 25, (1S,2S)-2-(9-carboxynonanoyl)amino-3-morpholino-1-phenyl-1-propanol]: the “Activity of accelerating glycolipid biosynthesis (Test Example 2)” value in test [3] is listed as 89.2. The “Glycolipid content (Test Example 3)” value in test [4] is recorded as 114.5.
